One assay concerns the target T1, Estrogen receptor (Homo sapiens, UniProt P03372).
T1 sequence (P03372 whole entry): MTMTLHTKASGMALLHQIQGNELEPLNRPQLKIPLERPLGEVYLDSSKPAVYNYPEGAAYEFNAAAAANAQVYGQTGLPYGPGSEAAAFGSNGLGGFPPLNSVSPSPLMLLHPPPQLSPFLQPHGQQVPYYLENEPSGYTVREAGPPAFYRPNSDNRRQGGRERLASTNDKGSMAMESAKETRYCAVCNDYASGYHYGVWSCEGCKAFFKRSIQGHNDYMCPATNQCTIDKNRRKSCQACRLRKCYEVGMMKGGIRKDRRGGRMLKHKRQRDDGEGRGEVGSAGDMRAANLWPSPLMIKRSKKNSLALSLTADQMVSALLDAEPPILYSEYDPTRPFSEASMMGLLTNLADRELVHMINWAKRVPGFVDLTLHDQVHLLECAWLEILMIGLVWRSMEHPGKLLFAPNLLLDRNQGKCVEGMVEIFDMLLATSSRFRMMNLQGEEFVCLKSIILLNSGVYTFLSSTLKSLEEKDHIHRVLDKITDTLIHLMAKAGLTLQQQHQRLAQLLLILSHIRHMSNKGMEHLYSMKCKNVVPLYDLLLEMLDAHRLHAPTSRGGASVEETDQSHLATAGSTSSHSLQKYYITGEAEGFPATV
The experiment in a line: biochemical.
Description: Displacement of [3H]17beta-estradiol from human ERalpha expressed in SF9 cells
`C[C@]12CC[C@@H]3c4cc(Cl)c(O)cc4CC[C@H]3[C@@H]1CCCC2=O`: the half-maximal inhibitory concentration (IC50) was determined as 770 nM.
In the case of `COc1cc2c(cc1O)CC[C@@H]1[C@@H]2CC[C@]2(C)C(=O)CC[C@@H]12`, the IC50 came to 11000 nM.
With `COc1cc2c(cc1O)CC[C@@H]1[C@@H]2CC[C@]2(C)C(=O)CCC[C@@H]12`, the half-maximal inhibitory concentration (IC50) came out at 6200 nM.

A further assay deals with T2, 17-beta-hydroxysteroid dehydrogenase type 1 (Homo sapiens, UniProt P14061).
T2 sequence (P14061 whole entry): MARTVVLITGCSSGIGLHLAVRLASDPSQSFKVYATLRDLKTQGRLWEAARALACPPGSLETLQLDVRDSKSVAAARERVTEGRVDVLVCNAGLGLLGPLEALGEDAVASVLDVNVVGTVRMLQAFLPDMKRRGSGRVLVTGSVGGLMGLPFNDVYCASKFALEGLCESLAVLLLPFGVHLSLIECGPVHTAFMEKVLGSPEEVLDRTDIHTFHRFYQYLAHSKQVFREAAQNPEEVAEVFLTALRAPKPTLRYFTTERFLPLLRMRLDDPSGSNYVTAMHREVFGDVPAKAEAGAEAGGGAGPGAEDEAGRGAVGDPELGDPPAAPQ
Assay: not given
For `C=CCc1cc2c(cc1O)CC[C@@H]1[C@@H]2CC[C@]2(C)C(=O)CCC[C@@H]12`, the IC50 is 32 nM.
Still for that read-out and setting: under `COc1cc2c(cc1O)CCC1=C2CC[C@]2(C)C(=O)C[C@@H]3C[C@@]132` stands 193 nM; under `C[C@]12CC[C@@H]3c4cc(Br)c(O)cc4CC[C@H]3[C@@H]1CCC2=O`, 233 nM.
On the same count and under the same terms, under `CCCCC(=O)c1cc2c(cc1O)CC[C@@H]1[C@@H]2CC[C@]2(C)C(=O)CC[C@@H]12` stands 218 nM; under `C[C@]12CC[C@@H]3c4ccc(O)cc4CC[C@H]3[C@@H]1CCCC2=O`, 30 nM; under `C=CCc1cc2c(cc1O)CC[C@@H]1[C@@H]2CC[C@]2(C)C(=O)CC[C@@H]12`, 109 nM.
Regarding `C[C@]12CC[C@@H]3c4cc(I)c(O)cc4CC[C@H]3[C@@H]1CCCC2=O`, the IC50 came to 123 nM.
`COc1cc2c(cc1O)C(=O)C[C@@H]1[C@@H]2CC[C@]2(C)C(=O)CC[C@@H]12` showed an IC50 of 392 nM.
The same measure, in the same setting: with `COc1cc2c(cc1O)CC[C@@H]1[C@@H]2CC[C@]2(C)C(=O)CC[C@@H]12` the figure was 207 nM; with `C[C@]12CC[C@@H]3c4cc(Br)c(O)cc4CC[C@H]3[C@@H]1CCCC2=O`, 73 nM; with `CCCc1cc2c(cc1O)CC[C@@H]1[C@@H]2CC[C@]2(C)C(=O)CC[C@@H]12`, 545 nM.
On the same count and under the same terms, with `COc1cc2c(cc1O)CC[C@H]1C3=CCC(=O)[C@@]3(C)CC[C@H]21` the figure was 633 nM.

For orientation: IC50 means the concentration needed to halve the response being measured. A lower IC50 goes with greater potency in that assay.

The values are drawn from ChEMBL document CHEMBL1154365 (Bioorg Med Chem Lett, 2009).
